One series has as its target T1, delta receptor (Bos taurus, UniProt F1N083).
T1 construct: Tissue homogenates are prepared from calf brains; from tissue; host or cells: calf brain frontal cortex homogenate
Put plainly: Receptor affinity, [3H]DPDPE binding in calf frontal cortex homogenate. On the procedure: (§1) Tissue homogenates are prepared from calf brains (thalamus for μ1 and μ2 and frontal cortex for delta). [^3H][D-Ala^2,D-Leu^5]enkephalin (DADLE) (0.7 nM) is incubated with 3 ml of tissue homogenate (15 mg of tissue per ml) in the presence of 10 nM of [D-Pen^2,D-Pen^5]enkephalin (DPDPE) and of increasing concentrations of free or vectorized M6G. Under these conditions, specific binding to μ1 binding sites is observed. For the μ2 receptor, [D-Ala^2, MePhe^4,Gly(ol)^5]enkephalin (DAMGO) (1 nM) is incubated with 3 ml of tissue homogenate in the presence of 5 nM [D-Ser2,Leu^5]enkephalin-Thr^6 (DSLET) and of increasing concentrations of free or vectorized M6G. For the delta receptor, the tissue is incubated with [^3H] [D-Pen^2,D-Pen^5]enkephalin in the presence of free or vectorized M6G. The nonspecific binding is determined by adding to the labeled ligands 1 μM of levallorphan.

The target in a further series is T2, μ2 receptor (Bos taurus, UniProt P79350).
T2 construct: Tissue homogenates are prepared from calf brains; from tissue; host or cells: calf brain thalamus homogenate
Put plainly: Receptor affinity, DAMGO binding in calf thalamus homogenate. As to conditions: DAMGO 1 nM with 5 nM DSLET. On the procedure:
as §1

The next series deals with μ1 receptor. Put plainly: Receptor affinity, [3H]DADLE binding in calf thalamus homogenate. As to conditions: [3H]DADLE 0.7 nM with 10 nM DPDPE. On the procedure: as §1
Series [1] is described as follows: Respiratory depression (blood O2 saturation). The conditions noted are these: rats, subcutaneous; for effect on oxygen saturation (FIG. 5, B and C) / oxygen level (SO2): 5×ED50 and 10×ED50 doses; for oxygen level (SO2): between 30 and 90 min; for effect on O2 saturation (FIG. 5, A): ED50 dose. The format is in vivo, rat. On the procedure:
The respiratory depression was calculated in rats. The product is injected into the animals subcutaneously and, after a certain amount of time, an aliquot of blood is taken from the femoral artery via a catheter implanted beforehand. During the study, the animals are placed in a calm place. After the blood sample has been taken, the oxygen saturation (SO2) and the CO2 pressure (PCO2) are measured. The SO2 values are measured in % O2.

A short description of a further series: Tail flick test. The format is in vivo, mouse. As to conditions: mice; for ED50: dose giving analgesic effect in 50% of the mice. On the procedure:
II.2. Assay Used: Tail Flick Test
a) Experimental Conditions
The mouse tail is placed in front of an infrared source. The light is focused on the ventral surface of the tail so as to produce a surface temperature of 55° C. As soon as the mouse moves the tail, the reaction time is then measured. The compounds studied are administered subcutaneously.
Three measurements are taken before administration of the product so as to have a baseline time. The percentage of mice in which analgesia has occurred is then represented by the number of mice having a reaction time which is at least double the baseline time divided by the total number of mice. The ED50 dose represents the concentration which gives 50% of mice in which analgesia has occurred.
[…]. We determined the ED50, which represents the dose which gives an analgesic effect in 50% of the mice in the “tail flick” model, for each product. […].
(In general: Thermal pain tests record how soon the animal reacts.)

For series [2] the following is noted: systemic injection; cited from earlier work.
A short description of series [3]: In situ brain perfusion (penetration through the BBB). The format is in vivo. As to conditions: mouse, perfusion of 60 seconds in buffer. The source says:
a) Experimental Conditions: In Situ Brain Perfusion
Mice (20-25 g, Iffa-Credo; l'Arbresle, France) are anesthetized. After exposure of the common carotid, the right external carotid artery is ligated at the level of the bifurcation with the internal carotid, and the common carotid is ligated between the heart and the site of the implantation of the catheter (polyethylene catheter, ID: 0.76). Said catheter, pre-filled with a heparin solution (100 units/ml) is inserted into the common carotid. The mice are perfused with a perfusion buffer (128 mM NaCl, 24 mM NaHCO3, 4.2 mM KCl, 2.4 mM NaH2PO4, 1.5 mM CaCl2, 0.9 mM MgSO4 and 9 mM D-glucose). This buffer is filtered and then a mixture containing 95% O2/5% CO2 is bubbled through in order to maintain the pH in the region of 7.4 and to supply the brain with oxygen during the perfusion.
The mice are perfused with the buffer containing the free M6G (compound 1: specific activity 84 mCi/mg) or the vectorized M6G (compound 2; specific activity 14.3 mCi/mg). Just before the start of the perfusion, the heart is stopped by sectioning the ventricles, in order to avoid reflux of the perfusate during the perfusion. The right hemisphere is then perfused at a rate of 10 ml/min for 60 seconds, after which time the mouse is decapitated. The amount of radioactivity in the right hemisphere is then measured and the brain penetration index (Kin) is calculated. […]

Here are results for three compounds from patent US20040248806A1, “Compounds comprising an analgesic molecule linked to a vector that can vectorise said molecule through the hematoencephalic barrier and pharmaceutical compositions containing same” (priority 2001, published 2004).

pKi: −log10 of the molar value. Read-outs that look alike come from different tables or passages of the source. Non-standard residues stand in square brackets, D forms with d. Residues, ends and D or L forms follow the SMILES beside them. *: point of attachment. X1 = CN1CC[C@]23c4c5ccc(O)c4O[C@H]2[C@@H](O[C@@H]2O[C@H](C(=O)NCCS*)[C@@H](O)[C@H](O)[C@H]2O)C=C[C@H]3[C@H]1C5; Mpa = O=C(O)CCS Where only a bound is given, the exact number is not on record here.

T2 sequence (P79350 whole entry): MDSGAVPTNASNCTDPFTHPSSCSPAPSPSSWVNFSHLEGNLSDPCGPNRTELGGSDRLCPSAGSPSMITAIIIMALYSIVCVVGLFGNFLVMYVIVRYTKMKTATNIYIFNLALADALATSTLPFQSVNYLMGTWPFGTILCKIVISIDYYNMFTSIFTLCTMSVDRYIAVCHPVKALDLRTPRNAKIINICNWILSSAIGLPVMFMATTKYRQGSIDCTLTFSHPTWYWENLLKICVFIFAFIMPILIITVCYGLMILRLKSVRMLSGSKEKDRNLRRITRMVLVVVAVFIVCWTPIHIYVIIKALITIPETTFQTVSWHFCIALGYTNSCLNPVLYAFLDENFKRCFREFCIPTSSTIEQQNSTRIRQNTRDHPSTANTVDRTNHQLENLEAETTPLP
T1 sequence (F1N083 1-372): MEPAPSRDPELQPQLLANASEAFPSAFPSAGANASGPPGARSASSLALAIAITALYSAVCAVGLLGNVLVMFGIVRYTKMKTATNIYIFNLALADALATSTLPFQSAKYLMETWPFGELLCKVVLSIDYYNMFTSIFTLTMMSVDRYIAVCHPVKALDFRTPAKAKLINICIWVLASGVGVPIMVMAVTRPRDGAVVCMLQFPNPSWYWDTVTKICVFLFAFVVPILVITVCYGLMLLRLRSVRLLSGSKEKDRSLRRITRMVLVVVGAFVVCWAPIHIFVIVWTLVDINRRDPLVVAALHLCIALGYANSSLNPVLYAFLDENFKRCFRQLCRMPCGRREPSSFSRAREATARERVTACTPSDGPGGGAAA

By pKi is commonly meant the negative decadic logarithm of the Ki, by convention in mol/L. Lower therefore signals a large Ki. The term ED50 denotes the dose at which the effect has come halfway, by size or by number of responders. On to `CN1CC[C@]23c4c5ccc(O)c4O[C@H]2[C@@H](O[C@@H]2O[C@H](C(=O)O)[C@@H](O)[C@H](O)[C@H]2O)C=C[C@H]3[C@H]1C5` [Compound 1, morphine-6-glucuronide], for which the pKi at delta receptor is 7.64. Also, the pKi at μ2 receptor was 8.24. This compound also showed a pKi on μ1 receptor of 8.57. For the same compound, in series [1], the “effect on oxygen saturation (FIG. 5, B and C)” value (shortened to “effect on oxygen saturation”) is “very significant decrease in the oxygen saturation”; the “oxygen level (SO2)” value was about 50%; the “effect on O2 saturation (FIG. 5, A)” value is recorded as “no effect”. Besides, in series [1] (10×ED50 dose, 60 min time point), the “mortality (FIG. 5, C)” value was “caused the death of some animals”. In addition, in the series “Tail flick test” (intravenous), the “Duration of the effect” value is 90 min and the ED50 was over 5.7 µmol/kg. Further, in the series “Tail flick test” (subcutaneous), the “Duration of the effect” value worked out at 150 min and the ED50 worked out at 6.6 µmol/kg. The “analgesic activity compared with morphine” value in series [2] was “roughly the same analgesic activity”.
`CC(C)C[C@H](NC(=O)[C@H](CCCNC(=N)N)NC(=O)[C@H](CCCNC(=N)N)NC(=O)CCSSCCNC(=O)[C@H]1O[C@@H](O[C@H]2C=C[C@H]3[C@H]4Cc5ccc(O)c6c5[C@@]3(CCN4C)[C@H]2O6)[C@H](O)[C@@H](O)[C@@H]1O)C(=O)N[C@@H](CO)C(=O)N[C@@H](Cc1ccc(O)cc1)C(=O)N[C@@H](CO)C(=O)N[C@@H](CCCNC(=N)N)C(=O)N[C@@H](CCCNC(=N)N)C(=O)N[C@@H](CCCNC(=N)N)C(=O)N[C@@H](Cc1ccccc1)C(=O)O` [Compound 2] ([Mpa](X1)RRLSYSRRRF-OH; C-terminus assumed) had a pKi on delta receptor of 7.72. Moreover, on μ2 receptor, the pKi was 9.22. In series [1], the “effect on oxygen saturation” value is “no notable decrease”; the “effect on O2 saturation (FIG. 5, A)” value is “no effect”. In addition, the “increase in passage into the brain (Kin) versus free M6G (FIG. 4)” value in series [3] is “approximately 100 fold”.
As to `CN1CC[C@]23c4c5ccc(O)c4O[C@H]2[C@@H](O)C=C[C@H]3[C@H]1C5` [Compound 3, Morphine], in series [1], the “effect on oxygen saturation” value was “very significant decrease in the oxygen saturation”; the “oxygen level (SO2)” value is given as about 50%; the “effect on O2 saturation (FIG. 5, A)” value is “small decrease in O2 saturation”. Moreover, in “Tail flick test” (Mus musculus, sc, subcutaneous, read-out: ED50), the ED50 came out at 11.6 µmol/kg. Moreover, in the series “Tail flick test” (Mus musculus, intravenous, read-out: ED50), the ED50 worked out at 15.4 µmol/kg. Besides, the “Duration of the effect” value in the series “Tail flick test” (intravenous) amounted to 60 min. Besides, the “Duration of the effect” value in “Tail flick test” (subcutaneous) was determined as 90 min.
